Assays:
[1] = Hydroxyapatite (HA) affinity/binding assay of 2,2′-BPBPA and nano-Ca@2,2′-BPBPA; conditions: for Amount (%) bound to HA, Mean: HA 20 mg, duplicate
Experimental: (§1) Affinity assays experiment. Synthetic HA was employed to explore the affinity of nano-Ca@2,2′-BPBPA to the bone microenvironment. HA (20 mg) was exposed to nano-Ca@2,2′-BPBPA (5 mL, 0.5 mg/mL). The 2,2′-BPBPA (0.5 mg/mL) and HA (20 mg) were used as control groups. All experimental and control groups were left under constant stirring (150 rpm) for 0-12 d. Finally, the supernatant was collected, centrifuged (5 min, 1500 rpm), and the absorbance was measured at λmax=299 nm of maximum absorption (1, 2, 3, 4, 7, 8, 9, 10, 11, 12 d) to determine the amount (%) of 2,2′-BPBPA bound to HA after each period. The experiment was performed in duplicate. Once the experiment was completed, HA, HA-2,2′-BPBPA, and HA-nano-Ca@2,2′-BPBPA were characterized by SEM-EDS and PXRD.
The affinity of nano-Ca@22′-BPBPA to the bone was investigated using hydroxyapatite (HA). The HA is the main constituent of the bone microenvironment; this mineral represents an ideal target when treating bone-related diseases.^45 The binding assay of the nano-Ca@2,2′-BPBPA to HA was performed in PBS at 37° C., the HA as a received reagent was exposed to this nano-BPCCs for 0-12 d. The binding assay for 2,2′-BPBPA to HA was determined as a control experiment. The affinity of these materials to HA was assessed by measuring the absorbance of the supernatant at the lambda max (λmax=299 nm) to quantify the decrease in the 2,2′-BPBPA concentration over time. Binding curves (FIG. 163A) reveal that 2,2′-BPBPA and the nano-Ca@2,2′-BPBPA presented between 32 to 37% binding to HA after 2 d. The ligand reaches about 90% of binding to HA after 7 d while the nano-Ca@2,2′-BPBPA offers a 93% of binding to this mineral after 8 d.
as §1, with “Binding assay with hydroxyapatite (HA).” for “Affinity assays experiment.”, “Experiment” for “The experiment”, “PXRD. Table 35 present the percentage (%) of 2,2′-BPBPA and nano-Ca@2,2′-BPBPA bound to HA in PBS. FIGS. 200-201 show the binding curves for 2,2′-BPBPA and nano-Ca@2,2′-BPBPA.” for “PXRD.”

[2] = Release of letrozole from drug-loaded 2,2′-BPBPA-Ca in FaSSGF; format: physicochemical; conditions: 37° C., 150 rpm, duplicate
Experimental: LET release curve from 2,2′-BPBPA-Ca. The release curve of LET from 2,2′-BPBPA-Ca was assessed in FaSSGF. A calibration curve for LET in FaSSGF was previously prepared; the lambda max (λmax) was detected at 238 nm (Supporting Information). About 100 mL of FaSSGF were placed in a 250-mL beaker and left in constant stirring at 37° C. (150 rpm).
(§2) Subsequently, […] of powdered drug-loaded 2,2′-BPBPA-Ca (experimental) were placed into the FaSSGF solution. After each time point (0, 1, 3, 6, 24, 48, and 72 h), an aliquot (1 mL) was taken out and diluted in a 5 mL volumetric flask. An aliquot was taken out before adding the drug-loaded material to record the first time point (0 h). Then, the absorbance was measured at 238 nm to determine the amount (%) of LET release from the 2,2′-BPBPA-Ca.
TGA thermographs for these drug-loaded materials were collected to determine the amount of LET loaded into the channels of 2,2′-BPBPA and nano-Ca@2,2′-BPBPA (20-21%, FIG. 8B). Furthermore, the release capacity of these drug-loaded BPCCs was assessed in physiological conditions (FaSSGF, pH=1.60) at 37° C. The LET release from 2,2′-BPBPA-Ca was determined by measuring the absorption of the supernatant at the lambda max (λmax=[…]) and quantifying the increase in the LET concentration over time.
as §2, with “Release experiment. […] About 100 mL of FaSSGF were placed in a 250-mL beaker and left in constant stirring at 37° C. (150 rpm). Subsequently,” for “Subsequently,”, “2,2′-BPBPA-Ca. The release curve of LET (control) in FaSSGF was used for comparison.” for “2,2′-BPBPA-Ca.”

maximum binding to HA ([1]; 0.5 mg/mL) [%]	time to reach maximum binding to HA ([1]; 0.5 mg/mL) [days]	Amount (%) bound to HA, Mean ([1]; 0.5 mg/mL, PBS, 1 d) [%]	Amount (%) bound to HA, Mean ([1]; 0.5 mg/mL, PBS, 2 d) [%]	Amount (%) bound to HA, Mean ([1]; 0.5 mg/mL, PBS, 3 d) [%]	Amount (%) bound to HA, Mean ([1]; 0.5 mg/mL, PBS, 4 d) [%]	Amount (%) bound to HA, Mean ([1]; 0.5 mg/mL, PBS, 7 d) [%]	Amount (%) bound to HA, Mean ([1]; 0.5 mg/mL, PBS, 8 d) [%]	Amount (%) bound to HA, Mean ([1]; 0.5 mg/mL, PBS, 11 d) [%]	Amount (%) bound to HA, Mean ([1]; 0.5 mg/mL, PBS, 12 d) [%]	bound to HA ([1]; PBS, 37 °C, 7 d)	Percentage (%) of letrozole (LET) released, Mean ([2]; 1 h) [%]	Percentage (%) of letrozole (LET) released, Mean ([2]; 3 h) [%]	Percentage (%) of letrozole (LET) released, Mean ([2]; 6 h) [%]	Percentage (%) of letrozole (LET) released, Mean ([2]; 24 h) [%]	Percentage (%) of letrozole (LET) released, Mean ([2]; 48 h) [%]	Percentage (%) of letrozole (LET) released, Mean ([2]; 72 h) [%]	SMILES
99	12	18	37	66	71	90	99	99	99	about 90%							O=P(O)(O)c1ccc(-c2ccc(P(=O)(O)O)cn2)nc1 [2,2′-BPBPA, 2,2′-bipyridine-5,5′-bisphosphonic acid]
											65	72	75	93	94	94	N#Cc1ccc(C(c2ccc(C#N)cc2)n2cncn2)cc1 [LET, letrozole]

Reference: patent publication US20250296942A1, “Phosphonate-Based Coordination Complexes and Methods of Preparation and Use Thereof” (University of Puerto Rico, priority 2021, published 2025)
